According to patent US10653676B2 (Dana-Farber Cancer Institute, Inc., priority 2010, dated 2020):

Key:
[1] = system: endogenous DUB enzyme complexes; assay: HA-Ub-VS labelling of other endogenous DUBs in HeLa cell extracts; format: biochemical, human; settings: HeLa cell extracts pretreated 4 h (Ub-Ald 5 μM), then Ub-VS 40 min at 30° C.; FIG. 7
Protocol: FIG. 7 is a composite figure depicting preferential inhibition of the activity of native USP1/UAF1 by C527. HeLa cell extracts were incubated with ubiquitin-aldehyde (Ub-Ald, 5 μM) or C527 at indicated concentrations for 4 h, followed by the addition of 0.5 μM Ub-Vs for 40 min. The reaction was split into two aliquots and subjected to immunoblotting for HA or USP1, respectively.
The ability of C527 to inhibit the deubiquitinating activity of native USP1 complexes derived from human cells was determined next (FIG. 7). For this purpose, the HA-tagged ubiquitin-VS, an affinity reagent known to covalently modify and trap active DUB enzymes in cell extracts was used. Cell extracts prepared from HeLa cells were pretreated with increasing concentrations of C527 for 4 h, followed by the incubation with Ub-VS for 40 min at 30° C. The enzymatic activity of endogenous DUBs was indicated by the conjugation of Ub-VS, detected as HA-labeling (see FIG. 7, high molecular weight bands). […] Ub-VS conjugation was inhibited by ubiquitin-aldehyde (Ub-Ald), a non-specific inhibitor of DUBs (lane 3).

USP5 = biological target: T1, USP5 (Homo sapiens, UniProt P45974); assay: ubiquitin-AMC assay with USP5; format: biochemical
T1 construct: purchased Boston Biochem
T1 sequence (P45974 1-858): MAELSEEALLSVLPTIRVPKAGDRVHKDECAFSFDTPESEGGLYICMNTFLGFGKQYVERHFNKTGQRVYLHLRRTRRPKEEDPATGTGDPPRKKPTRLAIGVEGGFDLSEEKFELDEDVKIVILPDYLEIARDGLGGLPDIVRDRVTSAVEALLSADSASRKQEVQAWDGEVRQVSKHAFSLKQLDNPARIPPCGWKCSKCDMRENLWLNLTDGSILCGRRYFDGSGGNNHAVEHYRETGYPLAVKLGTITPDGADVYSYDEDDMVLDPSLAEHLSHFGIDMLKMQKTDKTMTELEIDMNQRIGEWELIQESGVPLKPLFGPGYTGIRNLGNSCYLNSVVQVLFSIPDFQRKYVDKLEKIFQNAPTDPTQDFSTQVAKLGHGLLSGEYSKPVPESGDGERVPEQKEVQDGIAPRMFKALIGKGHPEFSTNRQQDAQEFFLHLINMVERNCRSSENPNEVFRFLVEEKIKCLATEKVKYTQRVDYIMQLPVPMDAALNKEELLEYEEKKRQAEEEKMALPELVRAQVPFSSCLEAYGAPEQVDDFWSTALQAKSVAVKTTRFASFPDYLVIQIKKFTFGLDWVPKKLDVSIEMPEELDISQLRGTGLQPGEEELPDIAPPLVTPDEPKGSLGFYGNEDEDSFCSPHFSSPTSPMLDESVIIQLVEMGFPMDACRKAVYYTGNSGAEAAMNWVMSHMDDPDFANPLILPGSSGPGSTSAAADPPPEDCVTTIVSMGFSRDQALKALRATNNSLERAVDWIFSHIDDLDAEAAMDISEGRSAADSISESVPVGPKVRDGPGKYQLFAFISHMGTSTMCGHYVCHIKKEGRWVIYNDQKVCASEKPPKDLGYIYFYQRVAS
Protocol: (§1) FIG. 6 is a composite figure showing that C527 is a pan-deubiqutinating enzyme inhibitor […]. Ubiquitin-AMC assay was performed using purified (FIG. 6A) USP12/UAF1/WDR20 (FIG. 6B) USP5 and (FIG. 6C) UCH-L1. Enzymes were incubated with DMSO or C527 at indicated concentrations for 3 h, followed by the addition of Ub-AMC at 0.5 μM final concentration. The fluorescence at […] was measured to indicate the enzymatic activity. FIG. 6D is a summary showing the IC50 of C527 against the indicated enzymes.
(§2) The in vitro enzymatic assays were performed using purified proteins from Sf9 cells as described previously (Cohn et al.). The assays using ubiquitin-AMC (Ub-7-amido-4-methylcoumarin; Boston Biochem) as substrate was carried out in a reaction buffer containing 20 mM HEPES-KOH (pH 7.8), 20 mM NaCl, 0.1 mg/ml ovalbumin, 0.5 mM EDTA and 10 mM dithiothreitol. The fluorescence was measured by FluoStar Galaxy Fluorometer (BMG Labtech). For the Ub-vinylsulfone (VS) assay, the proteins were incubated with Ub-VS at 0.5 μM final concentration for 1 h at 30° C., followed by the immunoblotting analysis.
(§3) To examine the specificity of C527 in USP1/UAF1 inhibition, its ability to inhibit other DUB enzymes in vitro was examined. […] Moreover, the active complex of USP12 contains an additional WD40 subunit (WDR20). […]

HeLa cells = assay: camptothecin-induced RAD51 and H2AX foci formation, immunofluorescence; format: cell-based, human; settings: camptothecin for 1 hr after pre-treatment; FIG. 8C
Protocol: FIG. 8 is a composite figure showing that C527 inhibits homologous recombination repair. […] U2OS-DRGFP cells were transfected with I-SCE-I and then exposed to C527 at the indicated concentration for 24 h. Cells were then subjected to flow cytometry analysis. The percentage of GFP positive cells was normalized by solvent vehicle treated group. […] HeLa cells, integrated with the NHEJ reporter, were treated with C527 and analyzed as described in (FIG. 8A). […] HeLa cells were pre-treated with DMSO or C527 at the indicated concentration and then exposed to camptothecin (CPT) for 1 hr. RAD51 foci were detected using immunofluorescence.
Cells were pre-extracted with extraction buffer (0.25% Triton-X100 in 200 mM HEPES at pH 7.4, 50 mM NaCl, 3 mM MgCl2 and 300 mM sucrose) on ice for 2 min prior to fixation with 4% paraformaldehyde. RAD51 foci were detected using anti-RAD51 antibody (Santa Cruz Biotechnology) and visualized using Alexa Fluor 488-conjugated secondary antibody. The quantification of cells with RAD51 foci was performed by counting the number of cells with RAD51 foci. At least 200 cells were counted from each sample. Data are represented as mean±SD from three independent experiments.
Camptothecin activated the assembly of RAD51 and H2AX foci.

USP12/UAF1/WDR20 complex = biological target: T2, USP12/UAF1/WDR20 complex (Homo sapiens, UniProt O75317); assay: ubiquitin-AMC assay with USP12/UAF1/WDR20; format: biochemical
T2 construct: made in house; host or cells: Sf9
Protocol: as §1, §2, §3

T2 sequence (O75317 whole entry, species assumed): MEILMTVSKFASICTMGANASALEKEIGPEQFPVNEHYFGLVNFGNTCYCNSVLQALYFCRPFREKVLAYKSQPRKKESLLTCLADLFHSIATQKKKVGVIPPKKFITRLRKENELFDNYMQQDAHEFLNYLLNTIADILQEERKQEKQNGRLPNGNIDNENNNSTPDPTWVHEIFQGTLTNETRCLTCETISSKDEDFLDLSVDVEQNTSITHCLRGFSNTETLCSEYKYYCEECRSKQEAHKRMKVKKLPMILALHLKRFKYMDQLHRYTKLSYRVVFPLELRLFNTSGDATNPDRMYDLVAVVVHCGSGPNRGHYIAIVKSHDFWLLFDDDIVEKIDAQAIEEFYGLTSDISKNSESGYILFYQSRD
T2 sequence (Q8TAF3 whole entry partner, species assumed): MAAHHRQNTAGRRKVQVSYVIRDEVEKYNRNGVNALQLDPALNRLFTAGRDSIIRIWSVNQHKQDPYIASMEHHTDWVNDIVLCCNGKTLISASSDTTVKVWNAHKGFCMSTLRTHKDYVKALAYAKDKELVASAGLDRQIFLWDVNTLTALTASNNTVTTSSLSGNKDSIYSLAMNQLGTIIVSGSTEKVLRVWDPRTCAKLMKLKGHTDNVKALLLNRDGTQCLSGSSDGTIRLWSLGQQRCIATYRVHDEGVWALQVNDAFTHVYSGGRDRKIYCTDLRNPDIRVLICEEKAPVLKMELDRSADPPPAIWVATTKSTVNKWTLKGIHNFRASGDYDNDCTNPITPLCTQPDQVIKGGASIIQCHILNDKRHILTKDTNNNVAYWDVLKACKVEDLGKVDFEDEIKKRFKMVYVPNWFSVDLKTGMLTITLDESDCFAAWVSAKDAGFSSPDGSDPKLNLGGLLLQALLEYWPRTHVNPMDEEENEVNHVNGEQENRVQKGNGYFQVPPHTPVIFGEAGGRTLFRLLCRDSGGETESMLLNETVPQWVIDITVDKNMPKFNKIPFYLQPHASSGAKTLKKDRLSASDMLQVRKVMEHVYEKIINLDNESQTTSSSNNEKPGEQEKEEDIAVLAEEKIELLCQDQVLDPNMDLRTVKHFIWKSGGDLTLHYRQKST
T2 sequence (Q8TBZ3 whole entry partner, species assumed): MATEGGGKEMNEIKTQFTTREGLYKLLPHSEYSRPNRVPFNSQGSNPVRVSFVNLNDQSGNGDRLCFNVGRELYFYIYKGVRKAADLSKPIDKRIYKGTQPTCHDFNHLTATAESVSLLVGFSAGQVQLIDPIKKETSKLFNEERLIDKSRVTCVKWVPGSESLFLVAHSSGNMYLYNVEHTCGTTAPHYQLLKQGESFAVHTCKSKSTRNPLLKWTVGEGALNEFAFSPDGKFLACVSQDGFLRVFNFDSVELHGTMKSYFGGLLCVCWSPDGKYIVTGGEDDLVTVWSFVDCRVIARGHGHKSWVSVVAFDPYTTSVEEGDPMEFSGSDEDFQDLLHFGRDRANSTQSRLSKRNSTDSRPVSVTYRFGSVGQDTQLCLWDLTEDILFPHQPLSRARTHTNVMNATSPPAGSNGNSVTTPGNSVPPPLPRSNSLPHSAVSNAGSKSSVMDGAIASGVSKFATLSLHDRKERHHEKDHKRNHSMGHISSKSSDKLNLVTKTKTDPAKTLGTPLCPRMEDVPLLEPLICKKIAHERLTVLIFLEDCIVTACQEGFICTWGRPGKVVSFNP

O=C1c2ccccc2C(=O)c2oc(-c3ccc(F)cc3)nc21 [Formula IV (527)]
Ub-VS labeling of endogenous DUBs (HA-labeling) [1]: failed to inhibit
IC50 compared with USP1/UAF1 (USP5; FIG. 6D): slightly higher
DUB activity of the USP5 enzyme (USP5; in vitro, FIG. 6B): inhibited
H2AX foci formation (HeLa cells): non-detectable effect
RAD51 foci formation (HeLa cells): inhibited RAD51 foci formation
IC50 compared with USP1/UAF1 (USP12/UAF1/WDR20 complex; FIG. 6D): slightly higher
DUB activity of the USP12/UAF1/WDR20 complex (USP12/UAF1/WDR20 complex; in vitro, FIG. 6A): inhibited
